Test results published in ChEMBL document CHEMBL4673260, “Pyridine alkaloids with activity in the central nervous system” (Bioorg Med Chem, 2020).

How the values were obtained:
[1] = target: Sodium-dependent dopamine transporter (Homo sapiens) (UniProt Q01959); assay: Inhibition of human dopamine transporter expressed in CHO-K1 cells at 10 uM relative to control; type: cell-based
[2] = target: Thromboxane A2 receptor (Homo sapiens) (UniProt P21731); assay: Inhibition of human Thromboxane A2 at 10 uM relative to control
Sequence of Thromboxane A2 receptor (Homo sapiens) (P21731 whole entry): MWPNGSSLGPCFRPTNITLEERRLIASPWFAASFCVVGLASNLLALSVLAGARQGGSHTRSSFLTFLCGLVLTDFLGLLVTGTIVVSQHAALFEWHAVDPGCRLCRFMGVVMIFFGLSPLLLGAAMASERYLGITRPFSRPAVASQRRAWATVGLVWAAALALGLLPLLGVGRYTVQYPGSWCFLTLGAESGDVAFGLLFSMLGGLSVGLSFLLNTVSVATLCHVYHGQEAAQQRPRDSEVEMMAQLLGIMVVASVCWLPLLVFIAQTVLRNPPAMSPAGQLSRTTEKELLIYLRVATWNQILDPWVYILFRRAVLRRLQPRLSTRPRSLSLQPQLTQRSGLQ

Homo sapiens [3] = species on record: Homo sapiens; assay: Inhibition of Glutamate receptor ionotropic NMDA agonist site (unknown origin) at 10 uM relative to control
[4] = target: T1, Neuronal acetylcholine receptor; alpha4/beta2 (Rattus norvegicus, UniProt P09483+P12390); assay: Displacement of [3H]epibatidine from alpha4beta2 nAChR in rat frontal cortex membrane by scintillation counting method; type: cell membranes
T1 sequence (P09483 whole entry): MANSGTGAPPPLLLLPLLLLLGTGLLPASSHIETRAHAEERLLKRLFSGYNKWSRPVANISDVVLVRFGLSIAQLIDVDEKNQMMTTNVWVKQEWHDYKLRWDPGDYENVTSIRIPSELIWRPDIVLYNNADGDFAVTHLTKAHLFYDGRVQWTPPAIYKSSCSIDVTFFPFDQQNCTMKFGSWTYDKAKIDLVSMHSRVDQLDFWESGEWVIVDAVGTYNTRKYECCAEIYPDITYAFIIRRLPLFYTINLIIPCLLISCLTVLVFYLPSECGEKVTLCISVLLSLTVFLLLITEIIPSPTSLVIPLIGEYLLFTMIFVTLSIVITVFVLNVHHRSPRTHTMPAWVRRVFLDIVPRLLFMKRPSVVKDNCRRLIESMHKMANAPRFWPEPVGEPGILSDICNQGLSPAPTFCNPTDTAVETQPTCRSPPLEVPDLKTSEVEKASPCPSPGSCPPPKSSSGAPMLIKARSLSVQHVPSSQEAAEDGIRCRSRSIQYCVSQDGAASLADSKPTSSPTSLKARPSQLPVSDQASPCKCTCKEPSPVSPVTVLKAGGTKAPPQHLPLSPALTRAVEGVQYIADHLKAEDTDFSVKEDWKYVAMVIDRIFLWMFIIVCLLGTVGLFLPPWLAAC
T1 sequence (P12390 whole entry): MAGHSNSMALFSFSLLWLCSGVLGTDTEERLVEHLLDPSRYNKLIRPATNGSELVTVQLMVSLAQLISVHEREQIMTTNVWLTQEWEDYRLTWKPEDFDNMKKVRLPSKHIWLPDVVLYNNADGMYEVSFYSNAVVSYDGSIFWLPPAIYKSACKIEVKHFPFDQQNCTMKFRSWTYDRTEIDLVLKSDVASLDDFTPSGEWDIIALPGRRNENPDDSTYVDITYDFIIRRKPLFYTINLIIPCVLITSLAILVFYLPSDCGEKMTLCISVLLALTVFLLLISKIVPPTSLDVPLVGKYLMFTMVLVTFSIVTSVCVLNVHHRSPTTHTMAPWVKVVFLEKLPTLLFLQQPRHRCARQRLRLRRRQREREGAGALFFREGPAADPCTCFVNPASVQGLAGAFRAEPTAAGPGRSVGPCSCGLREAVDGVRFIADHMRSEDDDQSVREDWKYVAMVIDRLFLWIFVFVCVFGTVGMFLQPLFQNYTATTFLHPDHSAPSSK

[5] = target: Protein kinase C alpha type (Homo sapiens) (UniProt P17252); assay: Inhibition of human protein kinase Ca at 10 uM relative to control
Homo sapiens [6] = species on record: Homo sapiens; assay: Inhibition of GABA-A agonist site (unknown origin) at 10 uM relative to control
[7] = target: cGMP-specific 3',5'-cyclic phosphodiesterase (Homo sapiens) (UniProt O76074); assay: Inhibition of human PDE5A1 at 10 uM relative to control
[8] = target: D(4) dopamine receptor (Homo sapiens) (UniProt P21917); assay: Inhibition of human dopamine D4.4 receptor expressed in CHO-K1 cells at 10 uM relative to control; type: cell-based
Homo sapiens [9] = species on record: Homo sapiens; assay: Inhibition of human PDE3A1A at 10 uM relative to control
Acetylcholinesterase = Acetylcholinesterase (Homo sapiens, UniProt P22303); assay: Inhibition of acetylcholinesterase (unknown origin) at 10 uM relative to control
Sequence of Acetylcholinesterase (P22303 whole entry): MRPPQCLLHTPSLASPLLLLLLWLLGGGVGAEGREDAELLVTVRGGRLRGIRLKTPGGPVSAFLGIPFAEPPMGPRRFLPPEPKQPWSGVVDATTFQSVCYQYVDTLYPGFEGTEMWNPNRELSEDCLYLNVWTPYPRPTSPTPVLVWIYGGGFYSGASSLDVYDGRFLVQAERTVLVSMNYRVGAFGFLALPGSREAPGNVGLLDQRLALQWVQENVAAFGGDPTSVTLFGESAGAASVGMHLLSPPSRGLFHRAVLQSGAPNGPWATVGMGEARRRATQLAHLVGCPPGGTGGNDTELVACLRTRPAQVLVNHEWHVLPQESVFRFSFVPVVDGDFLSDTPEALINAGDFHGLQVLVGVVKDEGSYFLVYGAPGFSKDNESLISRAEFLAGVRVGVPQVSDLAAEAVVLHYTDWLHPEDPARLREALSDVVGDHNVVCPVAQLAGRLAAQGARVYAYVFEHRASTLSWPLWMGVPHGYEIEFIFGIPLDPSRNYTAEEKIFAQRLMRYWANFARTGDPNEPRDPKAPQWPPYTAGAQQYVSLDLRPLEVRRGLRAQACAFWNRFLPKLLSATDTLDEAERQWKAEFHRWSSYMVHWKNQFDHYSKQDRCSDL

[10] = target: T2, 5-hydroxytryptamine receptor 2A (Homo sapiens, UniProt P28223); assay: Inhibition of human 5HT-2A receptor at 10 uM relative to control
T2 sequence (P28223 whole entry): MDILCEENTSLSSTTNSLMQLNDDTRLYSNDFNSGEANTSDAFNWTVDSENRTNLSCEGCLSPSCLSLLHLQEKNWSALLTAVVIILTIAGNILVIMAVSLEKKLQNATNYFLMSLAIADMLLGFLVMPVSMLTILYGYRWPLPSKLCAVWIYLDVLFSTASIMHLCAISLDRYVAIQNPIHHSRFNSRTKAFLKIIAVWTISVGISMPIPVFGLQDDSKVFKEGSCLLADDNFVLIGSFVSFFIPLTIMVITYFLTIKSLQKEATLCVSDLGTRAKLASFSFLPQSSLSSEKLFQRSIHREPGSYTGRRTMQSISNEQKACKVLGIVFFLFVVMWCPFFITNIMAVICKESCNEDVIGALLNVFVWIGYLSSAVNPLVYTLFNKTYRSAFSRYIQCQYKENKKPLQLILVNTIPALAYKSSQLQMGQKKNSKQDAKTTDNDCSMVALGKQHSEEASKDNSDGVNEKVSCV

Homo sapiens [11] = species on record: Homo sapiens; assay: Inhibition of human protein kinase A at 10 uM relative to control
[12] = target: T1, Neuronal acetylcholine receptor; alpha4/beta2
Description: Agonist activity at alpha4beta2 nAChR in rat frontal cortex membrane

[13] = target: Endothelin-1 receptor (Homo sapiens) (UniProt P25101); assay: Inhibition of human ET-A at 10 uM relative to control
[14] = target: Sodium-dependent serotonin transporter (Homo sapiens) (UniProt P31645); assay: Inhibition of human serotonin transporter expressed in HEK293 cells at 10 uM relative to control; type: cell-based
[15] = Half life in human; type: ADME
[16] = target: 5-hydroxytryptamine receptor 3A (Homo sapiens) (UniProt P46098); assay: Inhibition of 5HT-3 (unknown origin) receptor at 10 uM relative to control
Sequence of 5-hydroxytryptamine receptor 3A (Homo sapiens) (P46098 whole entry): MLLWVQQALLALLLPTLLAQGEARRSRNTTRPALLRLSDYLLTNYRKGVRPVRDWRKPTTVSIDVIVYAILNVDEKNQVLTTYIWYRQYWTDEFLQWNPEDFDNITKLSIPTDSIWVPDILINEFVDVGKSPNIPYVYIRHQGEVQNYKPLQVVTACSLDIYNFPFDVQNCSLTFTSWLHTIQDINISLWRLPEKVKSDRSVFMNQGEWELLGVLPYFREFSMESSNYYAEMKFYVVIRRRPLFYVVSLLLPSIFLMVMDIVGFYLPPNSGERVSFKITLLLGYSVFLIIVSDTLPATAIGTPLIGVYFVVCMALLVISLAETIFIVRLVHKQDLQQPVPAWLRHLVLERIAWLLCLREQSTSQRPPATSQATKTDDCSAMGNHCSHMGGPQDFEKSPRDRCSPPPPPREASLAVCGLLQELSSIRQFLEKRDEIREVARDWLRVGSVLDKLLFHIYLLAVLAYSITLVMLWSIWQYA

[17] = target: Alpha-2C adrenergic receptor (Homo sapiens) (UniProt P18825); assay: Inhibition of human adrenergic receptor alpha2C expressed in CHO-K1 cells at 10 uM relative to control; type: cell-based
[18] = target: Adenosine receptor A1 (Homo sapiens) (UniProt P30542); assay: Inhibition of human adenosine receptor A1 expressed in CHO-K1 cells at 10 uM relative to control; type: cell-based
[19] = target: Beta-2 adrenergic receptor (Homo sapiens) (UniProt P07550); assay: Inhibition of human adrenergic receptor beta2 expressed in CHO-K1 cells at 10 uM relative to control; type: cell-based
[20] = target: Alpha-2A adrenergic receptor (Homo sapiens) (UniProt P08913); assay: Inhibition of human adrenergic receptor alpha2A expressed in CHO-K1 cells at 10 uM relative to control; type: cell-based
Homo sapiens [21] = species on record: Homo sapiens; assay: Inhibition of sodium channel site2 (unknown origin) at 10 uM relative to control
[22] = target: Type-1 angiotensin II receptor (Homo sapiens) (UniProt P30556); assay: Inhibition of human AT1 receptor expressed in CHO-K1 cells at 10 uM relative to control; type: cell-based
Histamine H3 receptor = Histamine H3 receptor (Homo sapiens, UniProt Q9Y5N1); assay: Inhibition of human histamine H3 receptor expressed in CHO-K1 cells at 10 uM relative to control; type: cell-based
hERG (KCNH2) = hERG (KCNH2) (Homo sapiens, UniProt Q12809); assay: Inhibition of human ERG in HEK293 cells at 10 uM relative to control; type: cell-based; details: HEK293 cells that express hERG
Sequence of hERG (KCNH2) (Q12809 whole entry): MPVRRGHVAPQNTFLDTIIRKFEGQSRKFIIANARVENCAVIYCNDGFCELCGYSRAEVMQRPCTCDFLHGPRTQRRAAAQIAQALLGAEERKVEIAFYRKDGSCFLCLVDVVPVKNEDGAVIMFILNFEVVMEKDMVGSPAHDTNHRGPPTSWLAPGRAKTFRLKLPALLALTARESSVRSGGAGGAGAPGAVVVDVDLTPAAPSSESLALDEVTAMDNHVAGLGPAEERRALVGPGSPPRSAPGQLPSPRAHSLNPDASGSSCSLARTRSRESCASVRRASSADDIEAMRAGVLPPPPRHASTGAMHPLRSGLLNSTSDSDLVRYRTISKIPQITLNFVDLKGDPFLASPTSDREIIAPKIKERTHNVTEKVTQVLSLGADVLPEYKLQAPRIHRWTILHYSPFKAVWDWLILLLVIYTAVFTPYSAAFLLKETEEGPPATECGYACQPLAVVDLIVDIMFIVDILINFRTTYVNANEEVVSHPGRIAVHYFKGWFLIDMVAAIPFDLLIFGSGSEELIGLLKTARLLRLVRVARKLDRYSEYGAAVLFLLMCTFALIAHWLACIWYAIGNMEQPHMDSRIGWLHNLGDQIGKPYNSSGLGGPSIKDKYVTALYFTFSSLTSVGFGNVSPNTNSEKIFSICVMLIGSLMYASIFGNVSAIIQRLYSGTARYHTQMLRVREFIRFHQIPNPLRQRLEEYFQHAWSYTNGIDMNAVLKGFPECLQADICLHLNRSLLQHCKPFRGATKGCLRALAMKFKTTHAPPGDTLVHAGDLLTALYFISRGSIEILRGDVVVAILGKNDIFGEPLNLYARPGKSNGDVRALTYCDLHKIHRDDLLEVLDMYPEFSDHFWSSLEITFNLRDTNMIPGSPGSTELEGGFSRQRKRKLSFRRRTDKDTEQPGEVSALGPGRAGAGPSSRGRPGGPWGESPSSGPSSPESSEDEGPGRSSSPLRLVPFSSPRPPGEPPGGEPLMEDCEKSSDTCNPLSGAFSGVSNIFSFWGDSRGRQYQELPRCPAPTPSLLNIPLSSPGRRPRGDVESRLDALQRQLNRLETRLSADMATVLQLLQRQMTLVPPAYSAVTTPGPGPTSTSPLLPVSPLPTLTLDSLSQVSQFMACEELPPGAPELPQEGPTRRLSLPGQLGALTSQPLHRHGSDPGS

[23] = target: B2 bradykinin receptor (Homo sapiens) (UniProt P30411); assay: Inhibition of BKR2 (unknown origin) at 10 uM relative to control
L-type calcium channel = L-type calcium channel (Homo sapiens, UniProt O60840+Q01668+Q13698+Q13936); assay: Inhibition of L-type calcium channel (unknown origin) at 10 uM relative to control; type: protein assay
[24] = target: D(1A) dopamine receptor (Homo sapiens) (UniProt P21728); assay: Inhibition of human dopamine D1 receptor at 10 uM relative to control
[25] = target: Alpha-1B adrenergic receptor (Homo sapiens) (UniProt P35368); assay: Inhibition of human adrenergic receptor alpha1B expressed in CHO-K1 cells at 10 uM relative to control; type: cell-based
[26] = target: T2, 5-hydroxytryptamine receptor 2A; assay: Inhibition of human 5HT-2A receptor expressed in CHO-K1 cells at 10 uM relative to control; type: cell-based
[27] = target: Adenosine receptor A2a (Homo sapiens) (UniProt P29274); assay: Inhibition of human adenosine receptor A2A expressed in HEK293 cells at 10 uM relative to control; type: cell-based
Sequence of Adenosine receptor A2a (Homo sapiens) (P29274 whole entry): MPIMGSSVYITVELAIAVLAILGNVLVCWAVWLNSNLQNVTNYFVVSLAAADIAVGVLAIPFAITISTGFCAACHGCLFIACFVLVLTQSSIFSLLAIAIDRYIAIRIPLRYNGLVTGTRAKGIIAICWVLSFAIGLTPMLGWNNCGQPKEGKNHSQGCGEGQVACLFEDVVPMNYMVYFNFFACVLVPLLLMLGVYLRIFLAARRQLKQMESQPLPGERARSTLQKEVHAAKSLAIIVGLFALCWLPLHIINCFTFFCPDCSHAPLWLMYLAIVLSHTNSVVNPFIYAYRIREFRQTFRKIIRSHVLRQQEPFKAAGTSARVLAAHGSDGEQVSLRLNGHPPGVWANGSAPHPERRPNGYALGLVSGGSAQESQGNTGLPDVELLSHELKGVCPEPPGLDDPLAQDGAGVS

[28] = target: Muscarinic acetylcholine receptor M1 (Homo sapiens) (UniProt P11229); assay: Inhibition of human muscarinic M1 receptor expressed in CHO-K1 cells at 10 uM relative to control; type: cell-based
Homo sapiens [29] = species on record: Homo sapiens; assay: Inhibition of Glutamate receptor ionotropic kainate site (unknown origin) at 10 uM relative to control
[30] = target: Alpha-1A adrenergic receptor (Homo sapiens) (UniProt P35348); assay: Inhibition of human adrenergic receptor alpha1A expressed in CHO-K1 cells at 10 uM relative to control; type: cell-based
Homo sapiens [31] = species on record: Homo sapiens; assay: Inhibition of Calcium-activated potassium channel channel (unknown origin); details: concentration not given here
[32] = target: Beta-1 adrenergic receptor (Homo sapiens) (UniProt P08588); assay: Inhibition of human adrenergic receptor beta1 expressed in CHO-K1 cells at 10 uM relative to control; type: cell-based
[33] = target: Sigma intracellular receptor 2 (Homo sapiens) (UniProt Q5BJF2); assay: Inhibition of sigma 2 receptor (unknown origin) at 10 uM relative to control
[34] = target: Histamine H1 receptor (Homo sapiens) (UniProt P35367); assay: Inhibition of human histamine H1 receptor expressed in CHO-K1 cells at 10 uM relative to control; type: cell-based
[35] = target: Muscarinic acetylcholine receptor M4 (Homo sapiens) (UniProt P08173); assay: Inhibition of human muscarinic M4 receptor expressed in CHO-K1 cells at 10 uM relative to control; type: cell-based
[36] = target: 5-hydroxytryptamine receptor 1D (Homo sapiens) (UniProt P28221); assay: Inhibition of 5HT-1D receptor (unknown origin) at 10 uM relative to control
Sequence of 5-hydroxytryptamine receptor 1D (Homo sapiens) (P28221 whole entry): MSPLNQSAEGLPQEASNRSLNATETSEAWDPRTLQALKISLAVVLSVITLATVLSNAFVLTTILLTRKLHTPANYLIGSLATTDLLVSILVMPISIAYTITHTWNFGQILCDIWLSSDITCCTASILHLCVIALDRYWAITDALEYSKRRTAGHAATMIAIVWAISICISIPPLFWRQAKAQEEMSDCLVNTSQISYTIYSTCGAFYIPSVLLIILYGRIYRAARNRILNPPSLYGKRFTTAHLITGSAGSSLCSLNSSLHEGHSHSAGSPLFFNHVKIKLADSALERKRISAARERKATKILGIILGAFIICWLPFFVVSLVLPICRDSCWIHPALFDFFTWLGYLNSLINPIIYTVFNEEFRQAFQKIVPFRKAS

[37] = target: Mu-type opioid receptor (Homo sapiens) (UniProt P35372); assay: Inhibition of human Mu-type opioid receptor at 10 uM relative to control
[38] = target: Leukotriene B4 receptor 1 (Homo sapiens) (UniProt Q15722); assay: Inhibition of human BLT expressed in CHO-K1 cells at 10 uM relative to control; type: cell-based

CN1C(=O)CC[C@H]1c1cccnc1 [COTININE]
inhibition [1]: < 50%
inhibition [2]: < 50%
inhibition (Homo sapiens [3]): < 50%
Ki [4]: 3 µM
inhibition [5]: < 50%
inhibition (Homo sapiens [6]): < 50%
inhibition [7]: < 50%
inhibition [8]: < 50%
inhibition (Homo sapiens [9]): < 50%
inhibition (Acetylcholinesterase): < 50%
inhibition [10]: < 50%
inhibition (Homo sapiens [11]): < 50%
EC50 [12]: 21 µM
inhibition [13]: < 50%
inhibition [14]: < 50%
half-life [15]: 19 h
inhibition [16]: < 50%
inhibition [17]: < 50%
inhibition [18]: < 50%
inhibition [19]: < 50%
inhibition [20]: < 50%
inhibition (Homo sapiens [21]): < 50%
inhibition [22]: < 50%
inhibition (Histamine H3 receptor): < 50%
inhibition at 10 µM (hERG (KCNH2)): < 50%
inhibition [23]: < 50%
inhibition at 10 µM (L-type calcium channel): < 50%
inhibition [24]: < 50%
inhibition [25]: < 50%
inhibition [26]: < 50%
inhibition [27]: < 50%
inhibition [28]: < 50%
inhibition (Homo sapiens [29]): < 50%
inhibition [30]: < 50%
inhibition (Homo sapiens [31]): < 50%
inhibition [32]: < 50%
inhibition [33]: < 50%
inhibition [34]: < 50%
inhibition [35]: < 50%
inhibition [36]: < 50%
inhibition [37]: < 50%
inhibition [38]: < 50%
